Test results reported in US12649751B2 (Arcus Biosciences, Inc., priority 2022, dated 2026).

Each compound was assayed against HPK1 (Homo sapiens, UniProt Q92918) (assay: HPK1 Biochemical Assay (ADP-Glo luminescence; low ATP 10 μM or high ATP 200 μM)). Settings: 2 nM HPK1, 10 μM ATP; read-out: Biochemical Potency (low ATP).
Chain of HPK1 (Q92918 whole entry, species assumed): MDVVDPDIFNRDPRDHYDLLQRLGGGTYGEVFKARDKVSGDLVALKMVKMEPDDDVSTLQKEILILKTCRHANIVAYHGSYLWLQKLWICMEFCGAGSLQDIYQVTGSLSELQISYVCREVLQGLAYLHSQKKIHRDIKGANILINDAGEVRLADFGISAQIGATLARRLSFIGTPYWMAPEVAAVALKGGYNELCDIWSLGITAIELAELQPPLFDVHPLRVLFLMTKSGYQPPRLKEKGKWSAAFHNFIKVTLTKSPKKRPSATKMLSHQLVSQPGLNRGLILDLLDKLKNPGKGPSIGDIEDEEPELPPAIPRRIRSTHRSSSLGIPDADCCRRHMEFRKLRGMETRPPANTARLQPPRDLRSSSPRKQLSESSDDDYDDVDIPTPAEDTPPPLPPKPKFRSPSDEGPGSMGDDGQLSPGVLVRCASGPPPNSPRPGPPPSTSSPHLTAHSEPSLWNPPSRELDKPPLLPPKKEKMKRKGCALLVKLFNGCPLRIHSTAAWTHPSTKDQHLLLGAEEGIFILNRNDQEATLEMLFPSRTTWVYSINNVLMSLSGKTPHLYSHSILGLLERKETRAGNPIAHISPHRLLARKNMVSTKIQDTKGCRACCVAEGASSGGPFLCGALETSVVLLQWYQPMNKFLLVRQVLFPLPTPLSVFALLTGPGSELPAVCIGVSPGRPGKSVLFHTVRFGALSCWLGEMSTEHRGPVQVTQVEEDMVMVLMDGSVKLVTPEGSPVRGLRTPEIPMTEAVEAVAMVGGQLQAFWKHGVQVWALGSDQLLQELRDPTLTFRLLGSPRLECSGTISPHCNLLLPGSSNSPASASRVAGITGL

Cc1nccn1-c1nc2cc(Nc3ccc(C4CCOCC4)c(CN4CCCC4)n3)ncc2s1 [Example 239, N-[2-(2-Methyl-1H-imidazol-1-yl)-[1,3]thiazolo[5,4-c]pyridin-6-yl]-5-(oxan-4-yl)-6-[(pyrrolidin-1-yl)methyl]pyridin-2-amine] and Cc1cccnc1-c1nc2cc(Nc3ccc(C4CCOCC4)c(C4CCNC4)n3)ncc2s1 (centres unmarked) [Example 283, N-[2-(3-Methylpyridin-2-yl)-[1,3]thiazolo[5,4-c]pyridin-6-yl]-5-(oxan-4-yl)-6-(pyrrolidin-3-yl)pyridin-2-amine] cannot be ordered by IC50: under 100 nM for the first, under 100 nM for the second.

Compared with Cc1cccnc1-c1nc2cc(Nc3nccc(N4C[C@@H]5C[C@H]4CN5)n3)ncc2s1 [Example 240, 4-[(1S,4S)-2,5-Diazabicyclo[2.2.1]heptan-2-yl]-N-[2-(3-methylpyridin-2-yl)-[1,3]thiazolo[5,4-c]pyridin-6-yl]pyrimidin-2-amine], c1cc(-c2nc3cc(Nc4nccc(N5C[C@@H]6C[C@H]5CN6)n4)ncc3s2)ccn1 [Example 241, 4-[(1S,4S)-2,5-Diazabicyclo[2.2.1]heptan-2-yl]-N-[2-(pyridin-4-yl)-[1,3]thiazolo[5,4-c]pyridin-6-yl]pyrimidin-2-amine] is lower in IC50: 100 to 1000 nM for the first, under 100 nM for the second.

Cc1cccnc1-c1nc2cc(Nc3nccc(N4C[C@@H](N)C[C@H]4CO)n3)ncc2s1 [Example 242, [(2S,4S)-4-amino-1-(2-{[2-(3-Methylpyridin-2-yl)-[1,3]thiazolo[5,4-c]pyridin-6-yl]amino}pyrimidin-4-yl)pyrrolidin-2-yl]methanol] and Cc1ccc(N2C[C@@H]3C[C@H]2CN3C)nc1Nc1cc2nc(-c3ncccc3C)sc2cn1 [Example 284, 3-methyl-6-[(1S,4S)-5-methyl-2,5-diazabicyclo[2.2.1]heptan-2-yl]-N-[2-(3-methylpyridin-2-yl)-[1,3]thiazolo[5,4-c]pyridin-6-yl]pyridin-2-amine] fall in the same range of IC50: 100 to 1000 nM for the first, 100 to 1000 nM for the second.

CN(C)C(=O)c1cccc(-c2nc3cc(Nc4nccc(N5C[C@@H]6C[C@H]5CN6C)n4)ncc3s2)c1 [Example 243, N,N-Dimethyl-3-[6-({4-[(1S,4S)-5-methyl-2,5-diazabicyclo[2.2.1]heptan-2-yl]pyrimidin-2-yl}amino)-[1,3]thiazolo[5,4-c]pyridin-2-yl]benzamide] and CN1C[C@@H]2C[C@H]1CN2c1ccnc(Nc2cc3nc(-c4cccc(S(C)(=O)=O)c4)sc3cn2)n1 [Example 244, N-[2-(3-Methanesulfonylphenyl)-[1,3]thiazolo[5,4-c]pyridin-6-yl]-4-[(1S,4S)-5-methyl-2,5-diazabicyclo[2.2.1]heptan-2-yl]pyrimidin-2-amine] fall in the same range of IC50: 100 to 1000 nM for the first, 100 to 1000 nM for the second.

First: CN1C[C@@H]2C[C@H]1CN2c1ccnc(Nc2cc3nc(-c4cccc(C(=O)N5CCCC5)c4)sc3cn2)n1 [Example 245, 4-[(1S,4S)-5-Methyl-2,5-diazabicyclo[2.2.1]heptan-2-yl]-N-{2-[3-(pyrrolidine-1-carbonyl)phenyl]-[1,3]thiazolo[5,4-c]pyridin-6-yl}pyrimidin-2-amine]
Second: CN1C[C@@H]2C[C@H]1CN2c1cncc(Nc2cc3nc(-c4ccnc(N5CC[C@@H](O)C5)c4)sc3cn2)n1 [Example 263, (3R)-1-{4-[6-({6-[(1S,4S)-5-Methyl-2,5-diazabicyclo[2.2.1]heptan-2-yl]pyrazin-2-yl}amino)-[1,3]thiazolo[5,4-c]pyridin-2-yl]pyridin-2-yl}pyrrolidin-3-ol]
The IC50 of the first is higher: 100 to 1000 nM for the first, under 100 nM for the second.

Cc1cccnc1-c1nc2cc(Nc3ccc(C4CCOCC4)c(N4C[C@@H]5C[C@H]4CN5)n3)ncc2s1 [Example 246, 6-[(1S,4S)-2,5-Diazabicyclo[2.2.1]heptan-2-yl]-N-[2-(3-methylpyridin-2-yl)-[1,3]thiazolo[5,4-c]pyridin-6-yl]-5-(oxan-4-yl)pyridin-2-amine] and Cc1cccnc1-c1nc2cc(Nc3ccc(C4CCOCC4)c(N4C[C@@H]5C[C@H]4CN5C)n3)ncc2s1 [Example 247, 6-[(1S,4S)-5-Methyl-2,5-diazabicyclo[2.2.1]heptan-2-yl]-N-[2-(3-methylpyridin-2-yl)-[1,3]thiazolo[5,4-c]pyridin-6-yl]-5-(oxan-4-yl)pyridin-2-amine] cannot be ordered by IC50: under 100 nM for the first, under 100 nM for the second.

Cc1cccnc1-c1nc2cc(Nc3cc(C4CCOCC4)nc(N4C[C@@H]5C[C@H]4CN5)n3)ncc2s1 [Example 250, 2-[(1S,4S)-2,5-Diazabicyclo[2.2.1]heptan-2-yl]-N-[2-(3-methylpyridin-2-yl)-[1,3]thiazolo[5,4-c]pyridin-6-yl]-6-(oxan-4-yl)pyrimidin-4-amine] and Cc1cccnc1-c1nc2cc(Nc3ccc(C4CCOCC4)c(NCc4nccn4C)n3)ncc2s1 [Example 251, N2-[(1-Methyl-1H-imidazol-2-yl)methyl]-N6-[2-(3-methylpyridin-2-yl)-[1,3]thiazolo[5,4-c]pyridin-6-yl]-3-(oxan-4-yl)pyridine-2,6-diamine] cannot be ordered by IC50: under 100 nM for the first, under 100 nM for the second.

CN1C[C@@H]2C[C@H]1CN2c1nccc(Nc2cc3nc(-c4ccnc(N5CC[C@H](F)C5)c4)sc3cn2)n1 [Example 265, N-(2-{2-[(3S)-3-Fluoropyrrolidin-1-yl]pyridin-4-yl}-[1,3]thiazolo[5,4-c]pyridin-6-yl)-2-[(1S,4S)-5-methyl-2,5-diazabicyclo[2.2.1]heptan-2-yl]pyrimidin-4-amine] and CN1C[C@@H]2C[C@H]1CN2c1nccc(Nc2cc3nc(-c4ccnc(N5CC[C@@H](F)C5)c4)sc3cn2)n1 [Example 267, N-(2-{2-[(3R)-3-Fluoropyrrolidin-1-yl]pyridin-4-yl}-[1,3]thiazolo[5,4-c]pyridin-6-yl)-2-[(1S,4S)-5-methyl-2,5-diazabicyclo[2.2.1]heptan-2-yl]pyrimidin-4-amine] cannot be ordered by IC50: under 100 nM for the first, under 100 nM for the second.

CN1C[C@@H]2C[C@H]1CN2c1nccc(Nc2cc3nc(-c4ccnc(N5CC[C@H](O)C5)c4)sc3cn2)n1 [Example 266, (3S)-1-{4-[6-({2-[(1S,4S)-5-Methyl-2,5-diazabicyclo[2.2.1]heptan-2-yl]pyrimidin-4-yl}amino)-[1,3]thiazolo[5,4-c]pyridin-2-yl]pyridin-2-yl}pyrrolidin-3-ol] and CN1C[C@@H]2C[C@H]1CN2c1nccc(Nc2cc3nc(-c4ccnc5c4cnn5C)sc3cn2)n1 [Example 294, N-(2-{1-methyl-1H-pyrazolo[3,4-b]pyridin-4-yl}-[1,3]thiazolo[5,4-c]pyridin-6-yl)-2-[(1 S,4S)-5-methyl-2,5-diazabicyclo[2.2.1]heptan-2-yl]pyrimidin-4-amine] cannot be ordered by IC50: under 100 nM for the first, under 100 nM for the second.

Compared with Cc1cccnc1-c1nc2cc(Nc3ccc(N4CCC(F)(F)C4)c(C(C)(C)N)n3)ncc2s1 [Example 272, 6-(2-Aminopropan-2-yl)-5-(3,3-difluoropyrrolidin-1-yl)-N-[2-(3-methylpyridin-2-yl)-[1,3]thiazolo[5,4-c]pyridin-6-yl]pyridin-2-amine], Cc1cccnc1-c1nc2cc(Nc3ccc(N4CCC(F)(F)C4)c(N4CCCC4)n3)ncc2s1 [Example 280, 5-(3,3-Difluoropyrrolidin-1-yl)-N-[2-(3-methylpyridin-2-yl)-[1,3]thiazolo[5,4-c]pyridin-6-yl]-6-(pyrrolidin-1-yl)pyridin-2-amine] is higher in IC50: under 100 nM for the first, 1000 to 5000 nM for the second.

CCNCc1nc(Nc2cc3nc(-c4c(C)cccc4F)sc3cn2)ccc1N1CCC(F)(F)C1 [Example 279, 5-(3,3-Difluoropyrrolidin-1-yl)-6-[(ethylamino)methyl]-N-[2-(2-fluoro-6-methylphenyl)-[1,3]thiazolo[5,4-c]pyridin-6-yl]pyridin-2-amine] and Cc1cccnc1-c1nc2cc(Nc3ccc(N4CCC(F)(F)C4)c(N4C[C@@H]5C[C@H]4CN5C)n3)ncc2s1 [Example 281, 5-(3,3-Difluoropyrrolidin-1-yl)-6-[(1S,4S)-5-methyl-2,5-diazabicyclo[2.2.1]heptan-2-yl]-N-[2-(3-methylpyridin-2-yl)-[1,3]thiazolo[5,4-c]pyridin-6-yl]pyridin-2-amine] cannot be ordered by IC50: under 100 nM for the first, under 100 nM for the second.

CN(C)Cc1nc(Nc2cc3nc(NC(=O)c4c(F)cccc4F)sc3cn2)ccc1N1CCOCC1 [Example 282, N-[6-({6-[(Dimethylamino)methyl]-5-(morpholin-4-yl)pyridin-2-yl}amino)-[1,3]thiazolo[5,4-c]pyridin-2-yl]-2,6-difluorobenzamide] and CN(C)S(=O)(=O)c1cccc(-c2nc3cc(Nc4cccc(N5C[C@@H]6C[C@H]5CN6)n4)ncc3s2)c1 [Example 293] cannot be ordered by IC50: under 100 nM for the first, under 100 nM for the second.

CS(=O)(=O)Nc1cccc(-c2nc3cc(Nc4cccc(N5C[C@@H]6C[C@H]5CN6)n4)ncc3s2)c1 [Example 287, N-{3-[6-({6-[(1S,4S)-2,5-diazabicyclo[2.2.1]heptan-2-yl]pyridin-2-yl}amino)-[1,3]thiazolo[5,4-c]pyridin-2-yl]phenyl}methanesulfonamide] and CNS(=O)(=O)c1cccc(-c2nc3cc(Nc4cccc(N5C[C@@H]6C[C@H]5CN6)n4)ncc3s2)c1 [Example 292, 3-[6-({6-[(1S,4S)-2,5-diazabicyclo[2.2.1]heptan-2-yl]pyridin-2-yl}amino)-[1,3]thiazolo[5,4-c]pyridin-2-yl]-N-methylbenzene-1-sulfonamide] cannot be ordered by IC50: under 100 nM for the first, under 100 nM for the second.

Same assay, conditions: HPK1 ADP-Glo assay, low ATP (10 μM ATP, 2 nM HPK1); read-out: Biochemical Potency (low ATP)

CC(C)(O)c1cc(-c2nc3cc(Nc4cnc(C5CCOCC5)c(N5C[C@@H]6C[C@H]5CN6)n4)ncc3s2)ccn1 [Example 303, 2-{4-[6-({6-[(1S,4S)-2,5-diazabicyclo[2.2.1]heptan-2-yl]-5-(oxan-4-yl)pyrazin-2-yl}amino)-[1,3]thiazolo[5,4-c]pyridin-2-yl]pyridin-2-yl}propan-2-ol] and Cc1cccnc1-c1nc2cc(Nc3cccc(C4(O)C[C@@H]5CC4CN5)n3)ncc2s1 (some centres unmarked) [Example 314, 5-{6-[2-(3-methyl-2-pyridyl)-3-thia-1,5-diaza-6-indenylamino]-2-pyridyl}-2-azabicyclo[2.2.1]heptan-5-ol] cannot be ordered by IC50: under 100 nM for the first, under 100 nM for the second.

Work on Cc1cccnc1-c1nc2cc(Nc3ccc4cccc(C(C)(C)N)c4n3)ncc2s1 [Example 306, 6-[8-(1-amino-1-methylethyl)-2-quinolylamino]-2-(3-methyl-2-pyridyl)-3-thia-1,5-diazaindene] yielded an IC50 of under 100 nM.
